Data published in ChEMBL document CHEMBL5550107, “Fluorescent probes and degraders of the sterol transport protein Aster-A” (Bioorg Med Chem, 2024).
Active and inactive are the calls of the source. The rule behind the calls is not given here.

Key:
[1] = molecular target: T1, Protein Aster-A (Homo sapiens, UniProt Q96CP6); experiment: Binding affinity to aster A (unknown origin) assessed as change in fluorescence intensity
T1 sequence (Q96CP6 whole entry): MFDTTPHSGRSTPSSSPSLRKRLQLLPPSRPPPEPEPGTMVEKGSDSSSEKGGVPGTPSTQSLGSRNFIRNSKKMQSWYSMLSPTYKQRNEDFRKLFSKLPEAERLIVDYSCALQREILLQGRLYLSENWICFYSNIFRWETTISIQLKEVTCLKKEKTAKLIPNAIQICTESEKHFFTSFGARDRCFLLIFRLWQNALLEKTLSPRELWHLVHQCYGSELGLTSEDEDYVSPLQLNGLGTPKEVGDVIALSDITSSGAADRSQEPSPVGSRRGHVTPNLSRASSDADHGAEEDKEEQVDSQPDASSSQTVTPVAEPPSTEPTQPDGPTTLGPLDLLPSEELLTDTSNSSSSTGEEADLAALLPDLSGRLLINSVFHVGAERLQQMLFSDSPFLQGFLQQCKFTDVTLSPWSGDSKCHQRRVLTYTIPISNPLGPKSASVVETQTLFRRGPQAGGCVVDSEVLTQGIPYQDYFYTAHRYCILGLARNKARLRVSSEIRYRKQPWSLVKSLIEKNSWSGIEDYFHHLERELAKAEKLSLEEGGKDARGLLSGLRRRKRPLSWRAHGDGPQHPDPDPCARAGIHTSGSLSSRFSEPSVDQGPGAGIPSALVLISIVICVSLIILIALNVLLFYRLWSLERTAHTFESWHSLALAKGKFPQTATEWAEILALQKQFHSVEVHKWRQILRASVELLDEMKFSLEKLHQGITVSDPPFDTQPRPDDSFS

[2] = molecular target: T1, Protein Aster-A; experiment: Binding affinity to aster A (unknown origin) by fluorescence polarization method
[3] = molecular target: T2, Protein Aster-A (Homo sapiens) (UniProt Q96CP6); experiment: Binding affinity to aster A (unknown origin) assessed as change in melting temperature by differential scanning fluorimetry analysis
T2 sequence (whole entry): T1 sequence (Q96CP6 whole entry)

[4] = molecular target: Oxysterol-binding protein-related protein 1 (OSBPL1A) (Homo sapiens) (UniProt Q9BXW6); experiment: Binding affinity to ORP1 (unknown origin)
Sequence of Oxysterol-binding protein-related protein 1 (OSBPL1A) (Homo sapiens) (Q9BXW6 whole entry, looked up): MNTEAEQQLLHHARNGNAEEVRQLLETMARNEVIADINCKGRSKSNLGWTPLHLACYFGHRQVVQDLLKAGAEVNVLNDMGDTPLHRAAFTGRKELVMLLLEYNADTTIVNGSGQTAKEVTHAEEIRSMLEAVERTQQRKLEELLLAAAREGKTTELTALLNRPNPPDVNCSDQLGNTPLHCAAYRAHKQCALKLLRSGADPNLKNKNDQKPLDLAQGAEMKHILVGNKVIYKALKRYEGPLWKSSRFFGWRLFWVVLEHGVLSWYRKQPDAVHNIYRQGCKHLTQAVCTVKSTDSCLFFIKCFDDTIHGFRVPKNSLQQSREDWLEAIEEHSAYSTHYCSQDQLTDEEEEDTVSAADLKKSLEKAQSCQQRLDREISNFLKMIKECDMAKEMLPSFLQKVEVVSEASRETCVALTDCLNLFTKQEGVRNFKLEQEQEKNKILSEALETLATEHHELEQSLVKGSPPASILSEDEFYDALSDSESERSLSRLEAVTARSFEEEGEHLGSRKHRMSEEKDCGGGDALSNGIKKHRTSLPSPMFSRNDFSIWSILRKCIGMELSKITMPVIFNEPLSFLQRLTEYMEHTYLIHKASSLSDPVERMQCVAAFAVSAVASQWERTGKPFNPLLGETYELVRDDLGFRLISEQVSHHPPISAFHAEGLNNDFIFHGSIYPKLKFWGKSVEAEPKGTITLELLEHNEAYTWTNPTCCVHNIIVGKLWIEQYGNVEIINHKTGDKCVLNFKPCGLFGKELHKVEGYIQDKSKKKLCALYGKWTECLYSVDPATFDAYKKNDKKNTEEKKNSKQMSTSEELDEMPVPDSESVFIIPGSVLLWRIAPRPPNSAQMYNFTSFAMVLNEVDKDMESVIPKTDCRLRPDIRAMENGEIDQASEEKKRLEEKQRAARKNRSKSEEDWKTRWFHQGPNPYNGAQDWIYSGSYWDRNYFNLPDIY

[5] = molecular target: T1, Protein Aster-A; experiment: Displacement of tert-butyl 2-(4-((3-(4-(3-((2-(2,6-dioxopiperidin-3-yl)-1,3-dioxoisoindolin-4-yl)amino)propoxy)butoxy)propyl)carbamoyl)benzamido)-3a,6,7,7a-tetrahydrothiazolo[5,4-c]pyridine-5(4H)-carboxylate from aster A (unknown origin) assessed as change in fluorescence intensity
[6] = molecular target: T1, Protein Aster-A; experiment: Displacement of 22-NBD-Chol from aster A (unknown origin) by fluorescence polarization method
[7] = test system: MCF7; experiment: Inhibition of autophagy in human MCF7 cells expressing eGFP-LC3; format: functional, cell-based
[8] = Drug uptake in human HeLa cells assessed as increase in intracellular fluorescence at 10 uM incubated for 1 hr by […] microscopic analysis; format: ADME, cell-based
[9] = species: Homo sapiens; experiment: Binding affinity to aster B (unknown origin)
[10] = molecular target: Protein Aster-C (Homo sapiens) (UniProt Q8IYS0); experiment: Binding affinity to aster C (unknown origin)
Sequence of Protein Aster-C (Homo sapiens) (Q8IYS0 whole entry): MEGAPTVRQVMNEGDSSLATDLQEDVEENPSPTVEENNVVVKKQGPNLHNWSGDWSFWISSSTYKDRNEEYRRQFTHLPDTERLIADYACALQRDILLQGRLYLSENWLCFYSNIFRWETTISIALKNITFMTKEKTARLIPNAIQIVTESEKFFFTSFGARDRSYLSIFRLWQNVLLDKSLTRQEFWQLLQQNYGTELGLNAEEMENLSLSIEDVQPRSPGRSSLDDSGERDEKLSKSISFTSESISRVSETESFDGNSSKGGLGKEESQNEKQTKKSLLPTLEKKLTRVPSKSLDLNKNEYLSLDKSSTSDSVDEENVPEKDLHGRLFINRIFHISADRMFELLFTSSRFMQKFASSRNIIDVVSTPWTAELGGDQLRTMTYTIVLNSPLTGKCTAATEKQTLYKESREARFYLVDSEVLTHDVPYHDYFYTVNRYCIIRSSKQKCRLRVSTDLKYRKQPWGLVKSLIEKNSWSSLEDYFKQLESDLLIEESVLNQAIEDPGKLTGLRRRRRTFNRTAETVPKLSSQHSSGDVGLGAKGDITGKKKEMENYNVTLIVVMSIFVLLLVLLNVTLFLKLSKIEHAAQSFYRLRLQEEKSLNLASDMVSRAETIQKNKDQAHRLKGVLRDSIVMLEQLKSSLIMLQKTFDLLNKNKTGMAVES

[11] = molecular target: T3, Steroidogenic acute regulatory protein, mitochondrial (Homo sapiens) (UniProt P49675); experiment: Binding affinity to STARD1 (unknown origin)
T3 sequence (whole entry): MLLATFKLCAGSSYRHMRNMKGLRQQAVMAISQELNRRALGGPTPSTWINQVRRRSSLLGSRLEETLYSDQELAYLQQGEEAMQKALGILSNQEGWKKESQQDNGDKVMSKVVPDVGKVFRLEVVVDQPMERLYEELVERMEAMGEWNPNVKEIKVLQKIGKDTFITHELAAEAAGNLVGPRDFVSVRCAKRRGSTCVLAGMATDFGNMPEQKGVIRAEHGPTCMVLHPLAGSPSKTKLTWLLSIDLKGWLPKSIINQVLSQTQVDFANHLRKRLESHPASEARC

[12] = molecular target: T4, Protein cereblon/Protein Aster-A (Homo sapiens, UniProt Q96SW2+Q96CP6); experiment: PROTAC activity at CRBN/aster A in human HeLa cells at 10 uM incubated for 18 hrs by Western blotting analysis; format: cell-based
Target sequence in this assay (Q96SW2 whole entry, looked up, one chain of several): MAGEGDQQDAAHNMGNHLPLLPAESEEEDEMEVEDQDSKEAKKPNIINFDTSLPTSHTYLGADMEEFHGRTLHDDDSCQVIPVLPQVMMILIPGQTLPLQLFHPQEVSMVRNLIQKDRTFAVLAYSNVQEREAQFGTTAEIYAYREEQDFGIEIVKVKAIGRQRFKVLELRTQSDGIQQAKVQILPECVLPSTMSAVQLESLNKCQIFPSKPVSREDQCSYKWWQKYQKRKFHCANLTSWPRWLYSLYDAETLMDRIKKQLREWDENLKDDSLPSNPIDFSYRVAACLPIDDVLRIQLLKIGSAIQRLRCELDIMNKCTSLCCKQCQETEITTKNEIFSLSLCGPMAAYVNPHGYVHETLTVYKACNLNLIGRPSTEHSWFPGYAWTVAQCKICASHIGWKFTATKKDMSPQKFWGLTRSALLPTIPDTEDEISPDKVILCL

[13] = molecular target: T4, Protein cereblon/Protein Aster-A; experiment: PROTAC activity at CRBN/aster A in human HeLa cells assessed as aster A degradation incubated for 18 hrs by Western blotting analysis; format: cell-based
[14] = molecular target: T4, Protein cereblon/Protein Aster-A; experiment: PROTAC activity at CRBN/aster A in human HeLa cells assessed as maximum degradation incubated for 18 hrs by Western blotting analysis; format: cell-based
Target sequence in this assay (Q96SW2 whole entry, looked up, one chain of several): as above

[15] = molecular target: T4, Protein cereblon/Protein Aster-A; experiment: PROTAC activity at CRBN/aster A in human HeLa cells assessed as aster A degradation at 10 uM incubated for 18 hrs in presence of MLN4924 by Western blotting analysis; format: cell-based
Target sequence in this assay (Q96SW2 whole entry, looked up, one chain of several): as above

[16] = molecular target: T4, Protein cereblon/Protein Aster-A; experiment: PROTAC activity at CRBN/aster A in human HeLa cells assessed as aster A degradation at 10 uM incubated for 18 hrs in presence of MG132 by Western blotting analysis; format: cell-based
Target sequence in this assay (Q96SW2 whole entry, looked up, one chain of several): as above

[17] = molecular target: T2, Protein Aster-A (Homo sapiens); experiment: Induction of aster A degradation in human MCF7 cells; format: cell-based
[18] = molecular target: T2, Protein Aster-A (Homo sapiens); experiment: Induction of aster A degradation in human A549 cells; format: cell-based

Row | SMILES | Kd [1] [µM] | Kd [2] [µM] | ΔTm [3] [°C] | Activity [4] | IC50 [6] [µM] | IC50 [5] [µM] | Autophagy inhibition (active/not active) [7] | also measured
1 | CC12CCC(O)CC1CCc1cnn(-c3ccccc3F)c12 (configuration not stated) |  |  | 0.2 |  | > 10 | > 10 |  | 
2 | Cc1ncsc1-c1ccc(CNC(=O)[C@H]2C[C@H](O)CN2C(=O)[C@@H](NC(=O)CCCCCCCCCNC(=O)c2ccc(C(=O)Nc3nc4c(s3)CN(C(=O)OC(C)(C)C)CC4)cc2)C(C)(C)C)cc1 |  |  | 1.6 |  | > 10 | > 10 |  | 
3 | Cc1ncsc1-c1ccc(CNC(=O)[C@H]2C[C@H](O)CN2C(=O)[C@@H](NC(=O)COCCOCCNC(=O)c2ccc(C(=O)Nc3nc4c(s3)CN(C(=O)OC(C)(C)C)CC4)cc2)C(C)(C)C)cc1 |  |  | 4.4 |  | 3.7 | 1.47 |  | 
4 | Cc1ncsc1-c1ccc(CNC(=O)[C@H]2C[C@H](O)CN2C(=O)[C@@H](NC(=O)CCCCCCNC(=O)c2ccc(C(=O)Nc3nc4c(s3)CN(C(=O)OC(C)(C)C)CC4)cc2)C(C)(C)C)cc1 |  |  | 3.6 |  | 4.68 | 2.75 |  | 
5 | CC(C)Oc1ccc(C(=O)Nc2nc3c(s2)CN(C(=O)OC(C)(C)C)CC3)cc1 |  |  | 6.8 |  | 1.93 | 1.18 |  | 
6 | CCN(CC)CCO[C@H]1CC[C@@]2(C)C(=CC[C@@H]3[C@@H]2CC[C@]2(C)C(=O)CC[C@@H]32)C1 |  |  | 5.6 |  |  |  |  | 

Continued, in another order:

Row | Kd [1] [µM] | Kd [2] [µM] | ΔTm [3] [°C] | Activity [4] | IC50 [6] [µM] | SMILES | IC50 [5] [µM] | Autophagy inhibition (active/not active) [7] | also measured
7 | 0.088 | 0.049 | 4.9 | Active |  | CC(C)(C)OC(=O)N1CCC2N=C(NC(=O)c3ccc(C(=O)NCCOCCOCCOCCNc4cccc5c4C(=O)N(C4CCC(=O)NC4=O)C5=O)cc3)SC2C1 (configuration not stated) |  |  | 
8 | > 5 | > 5 | 0.1 |  |  | Nc1cccc2c1C(=O)N(C1CCC(=O)NC1=O)C2=O (configuration not stated) [POMALIDOMIDE] |  |  | 
9 | > 5 | 0.149 | 4 | Active |  | CC(C)(C)OC(=O)N1CCC2N=C(NC(=O)c3ccc(C(=O)NCCOCCOCCNc4cccc5c4C(=O)N(C4CCC(=O)NC4=O)C5=O)cc3)SC2C1 (configuration not stated) |  | Active | 
10 | 0.765 | 0.745 | 3.2 | Active |  | CC(C)(C)OC(=O)N1CCC2N=C(NC(=O)c3ccc(C(=O)NCCCCCCNc4cccc5c4C(=O)N(C4CCC(=O)NC4=O)C5=O)cc3)SC2C1 (configuration not stated) |  | inactive | Drug uptake [8]: Active
11 | 0.11 | 0.037 | 5 | Active |  | CC(C)(C)OC(=O)N1CCC2N=C(NC(=O)c3ccc(C(=O)NCCCOCCOCCCNc4cccc5c4C(=O)N(C4CCC(=O)NC4=O)C5=O)cc3)SC2C1 (configuration not stated) |  |  | 
12 | > 5 | > 5 | 0.3 |  |  | CC(C)(C)OC(=O)NCCOCCOCCNc1cccc2c1C(=O)N(C1CCC(=O)NC1=O)C2=O (configuration not stated) |  |  | 
13 | > 5 | > 5 | 1.2 | Active |  | CC(C)(C)OC(=O)N1CCC2N=C(NC(=O)c3ccc(C(=O)NCCCCCCCCCCNc4cccc5c4C(=O)N(C4CCC(=O)NC4=O)C5=O)cc3)SC2C1 (configuration not stated) |  | inactive | 
14 | 0.083 | 0.09 | 5.7 | Active |  | CC(C)(C)OC(=O)N1CCC2N=C(NC(=O)c3ccc(C(=O)NCCCOCCCCOCCCNc4cccc5c4C(=O)N(C4CCC(=O)NC4=O)C5=O)cc3)SC2C1 (configuration not stated) |  | Active | Activity [9]: inactive; Activity [10]: inactive; Activity [11]: inactive; Activity [12]: 50%; Activity [13]: Dose-Dependent Effect; DC50 [13]: 4.8 µM; Emax [14]: 60%; Activity [15]: inactive; Activity [16]: inactive; Activity [17]: inactive; Activity [18]: inactive
15 | 0.086 | 0.068 | 5.8 | Active |  | CC(C)(C)OC(=O)N1CCC2N=C(NC(=O)c3ccc(C(=O)NCCCOCCOCCOCCCNc4cccc5c4C(=O)N(C4CCC(=O)NC4=O)C5=O)cc3)SC2C1 (configuration not stated) |  | Active | 
